Source: patent US12662490B2, “Heterocyclic compounds” (Hoffmann-La Roche Inc., priority 2019, dated 2026)

molecular target: T1, MAGL (Homo sapiens, UniProt Q99685); assay: 2-AG assay (MAGL inhibitory activity; hydrolysis of 2-arachidonoylglycerol to arachidonic acid followed by mass spectrometry); assay type: biochemical; details: 15 min preincubation at RT, 8 μM 2-arachidonoylglycerol, 30 min at RT, RapidFire MS readout
T1 sequence (Q99685 1-303): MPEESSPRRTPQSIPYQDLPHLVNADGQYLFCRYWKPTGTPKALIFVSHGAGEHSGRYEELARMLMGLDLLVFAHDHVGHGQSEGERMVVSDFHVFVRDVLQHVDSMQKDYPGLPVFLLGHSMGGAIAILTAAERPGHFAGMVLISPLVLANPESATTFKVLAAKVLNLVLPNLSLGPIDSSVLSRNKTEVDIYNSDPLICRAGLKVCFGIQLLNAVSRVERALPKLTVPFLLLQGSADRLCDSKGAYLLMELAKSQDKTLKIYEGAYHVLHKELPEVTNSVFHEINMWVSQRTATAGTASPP
Method: Compounds were profiled for MAGL inhibitory activity by determining the enzymatic activity by following the hydrolysis of the natural substrate 2-arachidonoylglycerol (2-AG) resulting in arachidonic acid, which can be followed by mass spectrometry. This assay is hereinafter abbreviated “2-AG assay”.
The 2-AG assay was carried out in 384 well assay plates (PP, Greiner Cat #784201) in a total volume of 20 μL. Compound dilutions were made in […] (VWR Chemicals 23500.297) in a polypropylene plate in 3-fold dilution steps to give a final concentration range in the assay from 12.5 μM to […]. 0.25 μL compound dilutions (100% DMSO) were added to 9 μL MAGL in assay buffer (50 mM TRIS (GIBCO, 15567-027), 1 mM EDTA (Fluka, 03690-100 mL), 0.010 (v/v) Tween. After shaking, the plate was incubated for 15 min at RT. To start the reaction, 10 μL 2-arachidonoylglycerol in assay buffer was added. The final concentrations in the assay was […] and 8 μM 2-arachidonoylglyerol. After shaking and 30 min incubation at RT, the reaction was quenched by the addition of 40 μL of ACN containing 4 μM of d8-arachidonic acid. The amount of arachidonic acid was traced by an online SPE system (Agilent Rapidfire) coupled to a triple quadrupole mass spectrometer (Agilent 6460). A C18 SPE cartridge (G9205A) was used in an ACN/water liquid setup. The mass spectrometer was operated in negative electrospray mode following the mass transitions 303.1→259.1 for arachidonic acid and 311.1→267.0 for d8-arachidonic acid. The activity of the compounds was calculated based on the ratio of intensities [arachidonic acid/d8-arachidonic acid].

SMILES | IC50 [nM]
Cc1ccnnc1-c1cccc(C(=O)N2CCN3C[C@@H](c4ccc(F)c(Cl)c4)OC[C@@H]3C2)c1Cl [Example 34, [(3R,9aS)-3-(3-chloro-4-fluoro-phenyl)-3,4,6,7,9,9a-hexahydro-1H-pyrazino[2,1-c][1,4]oxazin-8-yl]-[2-chloro-3-(4-methylpyridazin-3-yl)phenyl]methanone] | 1440
O=C(c1cccc(-c2c[nH]nc2F)c1Cl)N1CCN2C[C@H](c3ccc(F)c(Cl)c3)OC[C@@H]2C1 [Example 50, [(3S,9aS)-3-(3-chloro-4-fluoro-phenyl)-3,4,6,7,9,9a-hexahydro-1H-pyrazino[2,1-c][1,4]oxazin-8-yl]-[2-chloro-3-(3-fluoro-1H-pyrazol-4-yl)phenyl]methanone] | 418
O=C(c1cccc(OC(F)(F)F)c1F)N1CCN2C[C@@H](c3ccc(F)c(Cl)c3)OC[C@@H]2C1 [Example 21, [(3R,9aS)-3-(3-chloro-4-fluoro-phenyl)-3,4,6,7,9,9a-hexahydro-1H-pyrazino[2,1-c][1,4]oxazin-8-yl]-[2-fluoro-3-(trifluoromethoxy)phenyl]methanone] | 746
COc1cccc(C(=O)N2CCN3C[C@H](c4ccc(F)c(-c5ccccc5)c4)OC[C@@H]3C2)c1Cl [Example 12, [(3S,9aS)-3-(4-fluoro-3-phenyl-phenyl)-3,4,6,7,9,9a-hexahydro-1H-pyrazino[2,1-c][1,4]oxazin-8-yl]-(2-chloro-3-methoxy-phenyl)methanone] | 575
COc1ccccc1-c1cccc(C(=O)N2CCN3C[C@@H](c4ccc(F)c(Cl)c4)OC[C@@H]3C2)c1Cl [Example 23, [(3R,9aS)-3-(3-chloro-4-fluoro-phenyl)-3,4,6,7,9,9a-hexahydro-1H-pyrazino[2,1-c][1,4]oxazin-8-yl]-[2-chloro-3-(2-methoxyphenyl)phenyl]methanone] | 26.3
Cc1cccc(C(=O)N2CCN3C[C@@H](c4ccc(F)c(Cl)c4)OC[C@@H]3C2)c1C#N [Example 20, 2-[(3R,9aS)-3-(3-chloro-4-fluoro-phenyl)-3,4,6,7,9,9a-xahydro-1H-pyrazino[2,1-c][1,4]oxazine-8-carbonyl]-6-methyl-benzonitrile] | 121
O=C(c1cnc2[nH]ncc2c1Cl)N1CCN2C[C@@H](c3ccc(F)c(Cl)c3)OC[C@@H]2C1 [Example 8, [(3R,9aS)-3-(3-chloro-4-fluoro-phenyl)-3,4,6,7,9,9a-hexahydro-1H-pyrazino[2,1-c][1,4]oxazin-8-yl]-(4-chloro-1H-pyrazolo[3,4-b]pyridin-5-yl)methanone] | 705
Cc1n[nH]c2ccc(C(=O)N3CCN4C[C@@H](c5ccc(F)c(Cl)c5)OC[C@@H]4C3)c(Cl)c12 [Example 41, [(3R,9aS)-3-(3-chloro-4-fluoro-phenyl)-3,4,6,7,9,9a-hexahydro-1H-pyrazino[2,1-c][1,4]oxazin-8-yl]-(4-chloro-3-methyl-1H-indazol-5-yl)methanone] | 63.8
COc1cccc(C(=O)N2CCN3C[C@@H](c4ccc(F)c(C#N)c4)OC[C@@H]3C2)c1Cl [Example 14, [(3R,9aS)-3-(3-cyano-4-fluoro-phenyl)-3,4,6,7,9,9a-hexahydro-1H-pyrazino[2,1-c][1,4]oxazin-8-yl]-(2-chloro-3-methoxy-phenyl)methanone] | 154
O=C(c1cccc(-c2ccccc2)c1Cl)N1CCN2C[C@@H](c3ccc(F)c(Cl)c3)OC[C@@H]2C1 [Example 22, [(3R,9aS)-3-(3-chloro-4-fluoro-phenyl)-3,4,6,7,9,9a-hexahydro-1H-pyrazino[2,1-c][1,4]oxazin-8-yl]-(2-chloro-3-phenyl-phenyl)methanone] | 16.1

The remaining lines, values ahead:

IC50 [nM] | SMILES
815 | COc1cccc(C(=O)N2CCN3CC(c4ccc(F)c(-c5ccn(C)c5)c4)OC[C@@H]3C2)c1Cl (stereo partly drawn) [Example 156, [(9aS)-3-[4-fluoro-3-(1-methylpyrrol-3-yl)phenyl]-3,4,6,7,9,9a-hexahydro-1H-pyrazino[2,1-c][1,4]oxazin-8-yl]-(2-chloro-3-methoxy-phenyl)methanone]
146 | COc1cccc(C(=O)N2CCN3C[C@@H](c4cc(Cl)c(F)c(C#N)c4)OC[C@@H]3C2)c1Cl [Example 135, 5-[(3R,9aS)-8-(2-chloro-3-methoxy-benzoyl)-3,4,6,7,9,9a-hexahydro-1H-pyrazino[2,1-c][1,4]oxazin-3-yl]-3-chloro-2-fluoro-benzonitrile]
385 | COc1ccc(F)c(C(=O)N2CCN3C[C@@H](c4cc(Cl)c[nH]c4=O)OC[C@@H]3C2)c1Cl [Example 147, 3-[(3R,9aS)-8-(2-chloro-6-fluoro-3-methoxy-benzoyl)-3,4,6,7,9,9a-hexahydro-1H-pyrazino[2,1-c][1,4]oxazin-3-yl]-5-chloro-1H-pyridin-2-one]
1.6 | N#Cc1cc(-c2cccc(C(=O)N3CCN4C[C@@](O)(c5ccc(F)c(Cl)c5)OC[C@@H]4C3)c2Cl)c[nH]1 [Example 109, 4-[3-[(3R,9aS)-3-(3-chloro-4-fluoro-phenyl)-3-hydroxy-1,4,6,7,9,9a-hexahydropyrazino[2,1-c][1,4]oxazine-8-carbonyl]-2-chloro-phenyl]-1H-pyrrole-2-carbonitrile]
2220 | COc1cccc(C(=O)N2CCN3C[C@H](c4cncc(Cl)c4)OC[C@@H]3C2)c1Cl (racemic) [Example 58, (2-chloro-3-methoxy-phenyl)-[rac-(3S,9aS)-3-(5-chloro-3-pyridyl)-3,4,6,7,9,9a-hexahydro-1H-pyrazino[2,1-c][1,4]oxazin-8-yl]methanone]
355 | COc1cccc(C(=O)N2CCN3C[C@@](O)(c4cc(F)c(F)cc4F)OC[C@@H]3C2)c1Cl [Example 144, [(3R,9aS)-3-hydroxy-3-(2,4,5-trifluorophenyl)-1,4,6,7,9,9a-hexahydropyrazino[2,1-c][1,4]oxazin-8-yl]-(2-chloro-3-methoxy-phenyl)methanone]
850 | COc1cccc(C(=O)N2CCN3C[C@@H](c4cc(Cl)c[nH]c4=O)OC[C@@H]3C2)c1Cl [Example 75, 3-[(3R,9aS)-8-(2-chloro-3-methoxy-benzoyl)-3,4,6,7,9,9a-hexahydro-1H-pyrazino[2,1-c][1,4]oxazin-3-yl]-5-chloro-1H-pyridin-2-one]
17.4 | N#Cc1cc(-c2cccc(C(=O)N3CCN4C[C@@H](c5cc(Cl)c[nH]c5=O)OC[C@@H]4C3)c2Cl)c[nH]1 [Example 117, 4-[3-[(3R,9aS)-3-(5-chloro-2-oxo-1H-pyridin-3-yl)-3,4,6,7,9,9a-hexahydro-1H-pyrazino[2,1-c][1,4]oxazine-8-carbonyl]-2-chloro-phenyl]-1H-pyrrole-2-carbonitrile]
1480 | COc1ccc(F)c(C(=O)N2CCN3C[C@H](c4ccc(F)c(Cl)c4)OC[C@@H]3C2)c1Cl [Example 159, [(3S,9aS)-3-(3-chloro-4-fluoro-phenyl)-3,4,6,7,9,9a-hexahydro-1H-pyrazino[2,1-c][1,4]oxazin-8-yl]-(2-chloro-6-fluoro-3-methoxy-phenyl)methanone]
9.1 | O=C(c1cccc(-c2c[nH]nc2F)c1Cl)N1CCN2C[C@@](O)(c3ccc(F)c(F)c3)OC[C@@H]2C1 [Example 92, [(3R,9aS)-3-(3,4-difluorophenyl)-3-hydroxy-1,4,6,7,9,9a-hexahydropyrazino[2,1-c][1,4]oxazin-8-yl]-[2-chloro-3-(3-fluoro-1H-pyrazol-4-yl)phenyl]methanone]
